Source: ChEMBL document CHEMBL3872237, “Nitric oxide-donating derivatives of hederacolchiside A1: Synthesis and biological evaluation in vitro and in vivo as potential anticancer agents” (Bioorg Med Chem Lett, 2017)
pIC50: −log10 of the molar value.

How the values were obtained:
[1] = Growth inhibition of human SMMC7721 cells after 48 hrs by MTT assay; assay type: functional, cell-based; settings: SMMC-7721, 48 h
[2] = Growth inhibition of human NCI-H460 cells after 48 hrs by MTT assay; assay type: functional, cell-based; settings: NCI-H460, 48 h
[3] = Growth inhibition of human U251 cells after 48 hrs by MTT assay; assay type: functional, cell-based; settings: U-251, 48 h
[4] = Growth inhibition of human HCT116 cells after 48 hrs by MTT assay; assay type: functional, cell-based; settings: HCT-116, 48 h
[5] = Induction of NO release in DMSO incubated up to 6 hrs by Griess assay; assay type: physicochemical
[6] = Haemolytic activity in New Zealand rabbit erythrocytes after 60 mins; assay type: ADME, cell-based, Oryctolagus cuniculus, Erythrocyte; settings: read-out: HD50
[7] = Solubility of the compound; assay type: physicochemical
Mus musculus [8] = test: Acute toxicity in mouse assessed as death at >168 mg/kg measured after 14 days; assay type: organism-based; settings: in vivo, 336 h
[9] = Antitumor activity against mouse H22 cells xenografted in nude Kunming mouse assessed as tumor growth inhibition at 10 mg/kg/day, iv for 14 days measured 24 hrs post last dose relative to control; assay type: functional; settings: read-out: TGI
[10] = Antitumor activity against mouse H22 cells xenografted in nude Kunming mouse assessed as tumor growth inhibition at 20 mg/kg/day, iv for 14 days measured 24 hrs post last dose relative to control; assay type: functional; settings: read-out: TGI
Mus musculus [11] = test: Toxicity in nude Kunming mouse xenografted with mouse H22 cells assessed as mouse death at 10 to 20 mg/kg/day, iv for 14 days measured 24 hrs post last dose; assay type: organism-based; settings: in vivo
Mus musculus [12] = test: Acute toxicity in mouse assessed as death at <8 mg/kg measured up to 1 hr; assay type: organism-based; settings: in vivo
[13] = Antitumor activity against mouse H22 cells xenografted in nude Kunming mouse assessed as tumor growth inhibition at 6 mg/kg/3 days for 5 times administered iv measured 24 hrs post last dose relative to control; assay type: functional; settings: read-out: TGI
[14] = Antiproliferative activity against human SMMC7721 cells after 48 hrs by resazurin reduction assay; assay type: functional, cell-based; settings: SMMC-7721, 48 h
[15] = Antiproliferative activity against human NCI-H460 cells after 48 hrs by resazurin reduction assay; assay type: functional, cell-based; settings: NCI-H460, 48 h
[16] = Antiproliferative activity against human U251 cells after 48 hrs by resazurin reduction assay; assay type: functional, cell-based; settings: U-251, 48 h
[17] = Antiproliferative activity against human HCT116 cells after 48 hrs by resazurin reduction assay; assay type: functional, cell-based; settings: HCT-116, 48 h

Compound | pIC50 [1] | pIC50 [2] | pIC50 [3] | pIC50 [4] | Activity [5] | HC50 at 1 h [6] [µM] | solubility [7] | Activity (Mus musculus [8]) | inhibition in vivo at 10 mg/kg/day [9] [%] | inhibition in vivo at 20 mg/kg/day [10] [%] | Activity (Mus musculus [11]) | Activity (Mus musculus [12]) | inhibition in vivo at 6 mg/kg [13] [%] | pIC50 [14] | pIC50 [15] | pIC50 [16] | pIC50 [17]
C[C@@H]1O[C@@H](O[C@H]2[C@H](O[C@H]3CC[C@]4(C)[C@H]5CC=C6[C@@H]7CC(C)(C)CC[C@]7(C(=O)OCCCOc7no[n+]([O-])c7S(=O)(=O)c7ccccc7)CC[C@@]6(C)[C@]5(C)CC[C@H]4C3(C)C)OC[C@H](O[C@@H]3O[C@H](CO)[C@@H](O)[C@H](O)[C@H]3O)[C@@H]2O)[C@H](O)[C@H](O)[C@H]1O | 5.72 | 5.51 | 5.80 | 5.19 | Active | 280 | Insoluble | Non-Toxic | 38.3 | 51.5 | Non-Toxic |  |  |  |  |  | 
CC(CCOc1no[n+]([O-])c1S(=O)(=O)c1ccccc1)OC(=O)[C@]12CCC(C)(C)C[C@H]1C1=CC[C@@H]3[C@@]4(C)CC[C@H](O[C@@H]5OC[C@H](O[C@@H]6O[C@H](CO)[C@@H](O)[C@H](O)[C@H]6O)[C@H](O)[C@H]5O[C@@H]5O[C@@H](C)[C@H](O)[C@@H](O)[C@H]5O)C(C)(C)[C@@H]4CC[C@@]3(C)[C@]1(C)CC2 (some centres not stated) | 5.43 | 5.21 | 5.64 | 4.95 |  |  |  |  |  |  |  |  |  |  |  |  | 
C[C@@H]1O[C@@H](O[C@H]2C(O[C@H]3CC[C@]4(C)[C@H]5CC=C6[C@@H]7CC(C)(C)CC[C@]7(C(=O)OC/C=C/COc7no[n+]([O-])c7S(=O)(=O)c7ccccc7)CC[C@@]6(C)[C@]5(C)CC[C@H]4C3(C)C)OC[C@H](O[C@@H]3O[C@H](CO)[C@@H](O)[C@H](O)[C@H]3O)[C@@H]2O)[C@H](O)[C@H](O)[C@H]1O (single isomer, unassigned) | 5.35 | 5.17 | 5.51 | 5.00 |  |  |  |  |  |  |  |  |  |  |  |  | 
C[C@@H]1O[C@@H](O[C@H]2C(O[C@H]3CC[C@]4(C)[C@H]5CC=C6[C@@H]7CC(C)(C)CC[C@]7(C(=O)OCCCCOc7no[n+]([O-])c7S(=O)(=O)c7ccccc7)CC[C@@]6(C)[C@]5(C)CC[C@H]4C3(C)C)OC[C@H](O[C@@H]3O[C@H](CO)[C@@H](O)[C@H](O)[C@H]3O)[C@@H]2O)[C@H](O)[C@H](O)[C@H]1O (single isomer, unassigned) | 5.59 | 5.47 | 5.68 | 5.14 | Active |  |  |  |  |  |  |  |  |  |  |  | 
C[C@@H]1O[C@@H](O[C@H]2C(O[C@H]3CC[C@]4(C)[C@H]5CC=C6[C@@H]7CC(C)(C)CC[C@]7(C(=O)O)CC[C@@]6(C)[C@]5(C)CC[C@H]4C3(C)C)OC[C@H](O[C@@H]3O[C@H](CO)[C@@H](O)[C@H](O)[C@H]3O)[C@@H]2O)[C@H](O)[C@H](O)[C@H]1O (single isomer, unassigned) [HEDERACOLCHISIDE A1] | 5.55 | 5.43 | 5.66 | 5.08 |  | 6.7 | Insoluble |  |  |  |  | Toxic | 47.5 | 5.08 to 5.66 | 5.08 to 5.66 | 5.08 to 5.66 | 5.08 to 5.66
O=[N+]([O-])OCC(CO[N+](=O)[O-])O[N+](=O)[O-] [NITROGLYCERIN] |  |  |  |  | Active |  |  |  |  |  |  |  |  |  |  |  | 
